Laboratory results: patent publication US20130109682A1, “CYCLIC ETHER COMPOUNDS USEFUL AS KINASE INHIBITORS” (NOVARTIS AG, priority 2010, published 2013)
pIC50: −log10 of the molar value.

How the values were obtained:
KDR kinase = KDR kinase (Homo sapiens, UniProt P35968); test: KDR kinase inhibition assay (LanthaScreen TR-FRET); format: biochemical; details: TR-FRET assay
Description: KDR Kinase Inhibition Assay
LanthaScreen™ is the detection of Time-Resolved Fluorescence Resonance Energy Transfer (TR-FRET) using lanthanide chelates to measure interactions between various binding partners. The application of TR-FRET to assay kinase activity was first described by Mathis (1995). A TR-FRET assay was used to measure KDR kinase inhibitory activity. The assay panel was run on a Biomek FX liquid handling workstations. To the assay plates containing 50 nL compound or control solutions, 4.5 μL of buffer A (50 mM TRIS-HCl pH 7.4, 2 mM DTT, 0.02% Tween 20, 0.02 mM Na3VO4, H2O nanpure) including a generic concentration of ATP (2 μM f.c.) was added per well, followed by 4.5 μL of buffer B (4 uM ATP in Buffer A) including a generic concentration of polyEAY (50 nM f.c.), KDR kinase, and divalent cations. Final concentration of kinase and cations were: [KDR kinase]=0.38 nM, [Mg]=10 mM, [Ca]=1 mM. After 1 hour of incubation the kinase reactions were stopped by the addition of 4.5 μL of stop solution D (50 mM EDTA, 20 mM TRIS-HCl pH 7.4, 0.04% NP-40) immediately followed by 4.5 μL of buffer A (50 mM TRIS-HCl pH 7.4, 2 mM DTT, 0.02% Tween 20, 0.02 mM Na3VO4, H2O nanpure) including the Tb-labeled P-20 antibody to give a total detection volume of 18 μL. After an incubation time of 45 min in the dark, the plates were transferred into the Pherastar fluorescence reader for counting. The effect of compound on the enzymatic activity was obtained from the linear progress curves and determined from one reading (end point measurement).

PIM2 = PIM2 (Homo sapiens, UniProt Q9P1W9); test: Pim 2 AlphaScreen assay (high ATP); format: biochemical; details: read-out: Pim2 IC50
Sequence of PIM2 (Q9P1W9 whole entry): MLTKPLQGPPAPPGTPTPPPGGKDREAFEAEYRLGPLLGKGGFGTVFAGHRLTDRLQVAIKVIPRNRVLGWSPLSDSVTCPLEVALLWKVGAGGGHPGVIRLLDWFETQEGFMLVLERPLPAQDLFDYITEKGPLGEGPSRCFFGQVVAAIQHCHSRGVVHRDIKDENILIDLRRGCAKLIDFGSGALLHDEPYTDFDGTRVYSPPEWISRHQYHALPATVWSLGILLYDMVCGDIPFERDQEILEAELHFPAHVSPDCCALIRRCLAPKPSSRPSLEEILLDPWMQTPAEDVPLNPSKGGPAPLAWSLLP
Procedure, shortened: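 IC50 values rest on detection of phosphorylated Bad peptide: after a ~2 h kinase reaction, an EDTA stop buffer containing anti-phospho Ser/Thr antibody, Protein A and streptavidin AlphaScreen beads was added and read after overnight dark incubation. ATP was high (11-125× Km), with 2.5% DMSO in pH 7.5 Hepes buffer containing MgCl2, BSA, Tween-20 and DTT.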

Sequence of KDR kinase (P35968 20-1356): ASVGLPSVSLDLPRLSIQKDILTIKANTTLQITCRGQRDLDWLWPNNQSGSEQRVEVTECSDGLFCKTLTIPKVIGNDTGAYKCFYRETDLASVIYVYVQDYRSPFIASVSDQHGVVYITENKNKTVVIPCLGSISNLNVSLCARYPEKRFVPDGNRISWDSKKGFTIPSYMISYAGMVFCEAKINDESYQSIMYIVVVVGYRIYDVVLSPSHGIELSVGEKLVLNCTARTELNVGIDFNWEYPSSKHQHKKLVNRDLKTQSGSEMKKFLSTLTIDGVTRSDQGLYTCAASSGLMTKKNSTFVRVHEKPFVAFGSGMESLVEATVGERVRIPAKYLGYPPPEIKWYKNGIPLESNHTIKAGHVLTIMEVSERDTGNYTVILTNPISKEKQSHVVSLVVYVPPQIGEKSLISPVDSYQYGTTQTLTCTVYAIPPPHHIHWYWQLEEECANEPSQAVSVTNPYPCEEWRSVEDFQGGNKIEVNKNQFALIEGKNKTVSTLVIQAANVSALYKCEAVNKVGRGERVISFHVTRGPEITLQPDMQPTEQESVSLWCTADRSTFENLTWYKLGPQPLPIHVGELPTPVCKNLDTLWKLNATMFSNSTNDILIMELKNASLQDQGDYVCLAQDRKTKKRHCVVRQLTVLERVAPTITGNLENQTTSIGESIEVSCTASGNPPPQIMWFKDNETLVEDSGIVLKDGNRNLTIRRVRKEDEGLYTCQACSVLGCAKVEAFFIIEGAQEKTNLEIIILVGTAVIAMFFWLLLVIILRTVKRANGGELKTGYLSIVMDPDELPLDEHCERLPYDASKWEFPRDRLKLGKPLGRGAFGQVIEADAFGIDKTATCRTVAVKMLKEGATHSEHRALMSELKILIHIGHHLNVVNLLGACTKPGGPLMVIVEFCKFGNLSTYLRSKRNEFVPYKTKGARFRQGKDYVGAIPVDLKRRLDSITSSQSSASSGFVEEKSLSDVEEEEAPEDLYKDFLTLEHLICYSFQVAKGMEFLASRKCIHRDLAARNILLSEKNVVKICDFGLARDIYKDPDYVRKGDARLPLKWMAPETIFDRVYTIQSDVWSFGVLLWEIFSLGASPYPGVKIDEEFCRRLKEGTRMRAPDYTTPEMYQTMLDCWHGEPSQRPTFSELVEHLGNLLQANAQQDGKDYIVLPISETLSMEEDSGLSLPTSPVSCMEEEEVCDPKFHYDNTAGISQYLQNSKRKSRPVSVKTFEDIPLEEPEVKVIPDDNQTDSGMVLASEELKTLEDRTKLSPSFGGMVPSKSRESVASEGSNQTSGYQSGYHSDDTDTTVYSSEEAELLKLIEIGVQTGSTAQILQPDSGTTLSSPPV

Work on `CC(C)[C@@H]1O[C@H](c2ccncc2NC(=O)c2nc(-c3ccccc3)cnc2N)C[C@H](N)[C@H]1O` [Example 240, 3-amino-N-(4-((2S,4S,5R,6S)-4-amino-5-hydroxy-6-isopropyltetrahydro-2H-pyran-2-yl)pyridin-3-yl)-6-phenylpyrazine-2-carboxamide] yielded a pIC50 (KDR kinase) of 5.29 and a pIC50 (PIM2) of 5.56.
With `CC(C)(C)[C@H]1O[C@@H](c2ccncc2NC(=O)c2nc(-c3ccccc3)cnc2N)C[C@H](N)[C@@H]1O` [Example 286, 3-amino-N-(4-((2R,4S,5S,6R)-4-amino-6-tert-butyl-5-hydroxytetrahydro-2H-pyran-2-yl)pyridin-3-yl)-6-phenylpyrazine-2-carboxamide] the pIC50 (KDR kinase) was 6.74 and the pIC50 (PIM2) was 7.19.
Work on `CC(C)[C@@H]1C[C@H](N)C[C@H](c2ccncc2NC(=O)c2nc(-c3ccccc3)cnc2N)O1` [Example 291, 3-amino-N-(4-((2R,4S,6S)-4-amino-6-isopropyltetrahydro-2H-pyran-2-yl)pyridin-3-yl)-6-phenylpyrazine-2-carboxamide] yielded a pIC50 (KDR kinase) of 6.47 and a pIC50 (PIM2) of 7.71.
With `CC(C)[C@H]1C[C@@H](N)C[C@@H](c2ccncc2NC(=O)c2nc(-c3ccccc3)cnc2N)O1` [Example 292, 3-amino-N-(4-((2S,4R,6R)-4-amino-6-isopropyltetrahydro-2H-pyran-2-yl)pyridin-3-yl)-6-phenylpyrazine-2-carboxamide] the pIC50 (KDR kinase) was 5.37 and the pIC50 (PIM2) was 6.12.
For `CCC[C@H]1O[C@@H](c2ccncc2NC(=O)c2nc(-c3ccccc3)cnc2N)C[C@@H](O)[C@@H]1O` [Example 340, 3-amino-N-(4-((2R,4R,5S,6R)-4,5-dihydroxy-6-propyltetrahydro-2H-pyran-2-yl)pyridin-3-yl)-6-phenylpyrazine-2-carboxamide], the pIC50 (KDR kinase) was 6.89 and the pIC50 (PIM2) was 5.44.
With `Nc1ncc(-c2ccccc2)nc1C(=O)Nc1cnccc1[C@H]1C[C@@H](O)[C@H](O)[C@@H](CO)O1` [Example 341, 3-amino-N-(4-((2R,4R,5S,6R)-4,5-dihydroxy-6-(hydroxymethyl)tetrahydro-2H-pyran-2-yl)pyridin-3-yl)-6-phenylpyrazine-2-carboxamide] the pIC50 (KDR kinase) was 7.22 and the pIC50 (PIM2) was < 4.60.
In the case of `CC[C@@H]1O[C@H](c2ccncc2NC(=O)c2nc(-c3ccccc3)cnc2N)C[C@H](N)[C@H]1O` [Example 342, 3-amino-N-(4-((2S,4S,5R,6S)-4-amino-6-ethyl-5-hydroxytetrahydro-2H-pyran-2-yl)pyridin-3-yl)-6-phenylpyrazine-2-carboxamide], the pIC50 (KDR kinase) was 6.29 and the pIC50 (PIM2) was 5.86.
With `CC[C@H]1O[C@@H](c2ccncc2NC(=O)c2nc(-c3ccccc3)cnc2N)C[C@@H](N)[C@@H]1O` [Example 343, 3-amino-N-(4-((2R,4R,5S,6R)-4-amino-6-ethyl-5-hydroxytetrahydro-2H-pyran-2-yl)pyridin-3-yl)-6-phenylpyrazine-2-carboxamide] the pIC50 (KDR kinase) was 7.89 and the pIC50 (PIM2) was 7.31.
With `C[C@]1(O)[C@H](N)C[C@H](c2ccncc2NC(=O)c2nc(-c3ccccc3)cnc2N)O[C@@H]1C1CC1` [Example 344, 3-amino-N-(4-((2R,4R,5S,6R)-4-amino-6-cyclopropyl-5-hydroxy-5-methyltetrahydro-2H-pyran-2-yl)pyridin-3-yl)-6-phenylpyrazine-2-carboxamide] the pIC50 (KDR kinase) was 7.24 and the pIC50 (PIM2) was 6.97.
For `CC[C@@H]1O[C@H](c2ccncc2NC(=O)c2nc(-c3ccccc3)cnc2N)C[C@H](N)[C@@]1(C)O` [Example 345, 3-amino-N-(4-((2S,4S,5R,6S)-4-amino-6-ethyl-5-hydroxy-5-methyltetrahydro-2H-pyran-2-yl)pyridin-3-yl)-6-phenylpyrazine-2-carboxamide], the pIC50 (KDR kinase) was 5.36 and the pIC50 (PIM2) was 5.11.
`Nc1ncc(-c2ccccc2)nc1C(=O)Nc1cnccc1[C@H]1C[C@@H](N)[C@H](O)[C@@H](C2CC2)O1` [Example 346, 3-amino-N-(4-((2R,4R,5S,6R)-4-amino-6-cyclopropyl-5-hydroxytetrahydro-2H-pyran-2-yl)pyridin-3-yl)-6-phenylpyrazine-2-carboxamide] showed a pIC50 (KDR kinase) of 7.55 and a pIC50 (PIM2) of 7.20.
For `C[C@@]1(O)[C@@H](N)C[C@@H](c2ccncc2NC(=O)c2nc(-c3ccccc3)cnc2N)O[C@H]1C1CC1` [Example 347, 3-amino-N-(4-((2S,4S,5R,6S)-4-amino-6-cyclopropyl-5-hydroxy-5-methyltetrahydro-2H-pyran-2-yl)pyridin-3-yl)-6-phenylpyrazine-2-carboxamide], the pIC50 (KDR kinase) was 5.43 and the pIC50 (PIM2) was 5.10.
Compound `CC[C@H]1O[C@@H](c2ccncc2NC(=O)c2nc(-c3ccccc3)cnc2N)C[C@@H](N)[C@]1(C)O` [Example 348, 3-amino-N-(4-((2R,4R,5S,6R)-4-amino-6-ethyl-5-hydroxy-5-methyltetrahydro-2H-pyran-2-yl)pyridin-3-yl)-6-phenylpyrazine-2-carboxamide] has a pIC50 (KDR kinase) of 6.82 and a pIC50 (PIM2) of 6.84.
In the case of `Nc1ncc(-c2ccccc2)nc1C(=O)Nc1cnccc1[C@@H]1C[C@H](N)[C@@H](O)[C@H](C2CC2)O1` [Example 349, 3-amino-N-(4-((2S,4S,5R,6S)-4-amino-6-cyclopropyl-5-hydroxytetrahydro-2H-pyran-2-yl)pyridin-3-yl)-6-phenylpyrazine-2-carboxamide], the pIC50 (KDR kinase) was 5.64 and the pIC50 (PIM2) was 5.56.
For `C[C@@]1(O)[C@@H](N)C[C@@H](c2ccncc2NC(=O)c2nc(-c3ccccc3)cnc2N)OC12CC2` [Example 350, 3-amino-N-(4-((5S,7S,8R)-7-amino-8-hydroxy-8-methyl-4-oxaspiro[2.5]octan-5-yl)pyridin-3-yl)-6-phenylpyrazine-2-carboxamide], the pIC50 (KDR kinase) was 6.66 and the pIC50 (PIM2) was 6.10.
`C[C@]1(O)[C@@H](N)C[C@H](c2ccncc2NC(=O)c2nc(-c3ccccc3)cnc2N)OC12CC2` [Example 351, 3-amino-N-(4-((5R,7S,8S)-7-amino-8-hydroxy-8-methyl-4-oxaspiro[2.5]octan-5-yl)pyridin-3-yl)-6-phenylpyrazine-2-carboxamide] was tested, and the pIC50 (KDR kinase) was 8.15 and the pIC50 (PIM2) was 6.27.
With `C[C@@]1(O)[C@H](N)C[C@@H](c2ccncc2NC(=O)c2nc(-c3ccccc3)cnc2N)OC12CC2` [Example 352, 3-amino-N-(4-((5S,7R,8R)-7-amino-8-hydroxy-8-methyl-4-oxaspiro[2.5]octan-5-yl)pyridin-3-yl)-6-phenylpyrazine-2-carboxamide] the pIC50 (KDR kinase) was 7.55 and the pIC50 (PIM2) was 5.70.
`C[C@]1(O)[C@H](N)C[C@H](c2ccncc2NC(=O)c2nc(-c3ccccc3)cnc2N)OC12CC2` [Example 353, 3-amino-N-(4-((5R,7R,8S)-7-amino-8-hydroxy-8-methyl-4-oxaspiro[2.5]octan-5-yl)pyridin-3-yl)-6-phenylpyrazine-2-carboxamide] gave a pIC50 (KDR kinase) of 6.60 and a pIC50 (PIM2) of 5.61.
In the case of `CC(C)(C)[C@H]1O[C@@H](c2ccncc2NC(=O)c2nc(-c3ccccc3)cnc2N)C[C@@H](N)[C@@H]1O` [Example 354, 3-amino-N-(4-((2R,4R,5S,6R)-4-amino-6-tert-butyl-5-hydroxytetrahydro-2H-pyran-2-yl)pyridin-3-yl)-6-phenylpyrazine-2-carboxamide], the pIC50 (KDR kinase) was 7.21 and the pIC50 (PIM2) was 8.05.
`CC(C)(C)[C@@H]1O[C@H](c2ccncc2NC(=O)c2nc(-c3ccccc3)cnc2N)C[C@H](N)[C@H]1O` [Example 355, 3-amino-N-(4-((2S,4S,5R,6S)-4-amino-6-tert-butyl-5-hydroxytetrahydro-2H-pyran-2-yl)pyridin-3-yl)-6-phenylpyrazine-2-carboxamide] gave a pIC50 (KDR kinase) of 5.19 and a pIC50 (PIM2) of 5.06.
